Data as given in the supplement of paper PMC11368000.

What was measured:
Conditions in all cases: exposure time: 90 min
1083 = donor line of iPSC-derived cardiomyocytes; assay: POD (EC05) for decrease in beat frequency (negative chronotrope) vs vehicle; higher = less potent (higher point of departure)
Experimental: (§1)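 Human iPSC-derived cardiomyocytes from 16 donors were exposed for 90 min at 37 °C to each PFAS at 0.1, 1, 10 and 100 µM in 0.5% DMSO, 384-well plates. Kinetic Ca2+ flux (FLIPR) and Hoechst nuclei counts were normalised to vehicle wells and fitted with a hierarchical Bayesian Hill model to give donor-specific PODs: EC05 for beat-rate increase or decrease and for decay-to-rise ratio increase (QT proxy), EC95 for peak-frequency loss (asystole), EC10 for total cell number loss. 0.03 µM is the lower bound.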

1118 = donor line of iPSC-derived cardiomyocytes; assay: as above
Experimental: as §1

11235 = donor line of iPSC-derived cardiomyocytes; assay: as above
Experimental: as §1

1309 = donor line of iPSC-derived cardiomyocytes; assay: as above
Experimental: as §1

1368 = donor line of iPSC-derived cardiomyocytes; assay: as above
Experimental: as §1

1392 = donor line of iPSC-derived cardiomyocytes; assay: as above
Experimental: as §1

1434 = donor line of iPSC-derived cardiomyocytes; assay: as above
Experimental: as §1

1516 [1] = donor line of iPSC-derived cardiomyocytes; assay: as above
Experimental: as §1

1518 [2] = donor line of iPSC-derived cardiomyocytes; assay: as above
Experimental: as §1

1531 [3] = donor line of iPSC-derived cardiomyocytes; assay: as above
Experimental: as §1

1535 = donor line of iPSC-derived cardiomyocytes; assay: as above
Experimental: as §1

1565 = donor line of iPSC-derived cardiomyocytes; assay: as above
Experimental: as §1

20032 = donor line of iPSC-derived cardiomyocytes; assay: as above
Experimental: as §1

20084 = donor line of iPSC-derived cardiomyocytes; assay: as above
Experimental: as §1

30145 [4] = donor line of iPSC-derived cardiomyocytes; assay: as above
Experimental: as §1

30171 = donor line of iPSC-derived cardiomyocytes; assay: as above
Experimental: as §1

1531 [5] = assay: POD (EC05) for increase in Ca2+ transient decay-to-rise ratio (QT prolongation) vs vehicle; higher = less potent (higher point of departure)
How it was run: (§2)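 Cardiomyocytes derived from human iPSCs of 16 donors were grown 14 days in gelatin-coated 384-well plates, loaded 2 h with a fluorescent Ca2+ dye, then exposed for 90 min at 37 °C to final concentrations of 0.1, 1, 10 and 100 µM in 0.5% DMSO. A FLIPR Tetra recorded Ca2+ flux at 8 frames/s for 100 s before and after exposure. Points of departure for each donor were derived by hierarchical Bayesian Hill fitting of vehicle-normalised beat frequency, decay-to-rise ratio or peak frequency. The thresholds applied were a 5% change, or a 95% loss for peak frequency.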

30145 [6] = assay: POD (EC05) for increase in beat frequency (positive chronotrope) vs vehicle; higher = less potent (higher point of departure)
How it was run: as §2

1516 [7] = assay: POD (EC05) for increase in Ca2+ transient decay-to-rise ratio (QT prolongation) vs vehicle; higher = less potent (higher point of departure)
How it was run: as §2

1518 [8] = assay: as above
How it was run: as §2

| SMILES | POD vs vehicle 1083 [µM] | POD vs vehicle 1118 [µM] | POD vs vehicle 11235 [µM] | POD vs vehicle 1309 [µM] | POD vs vehicle 1368 [µM] | POD vs vehicle 1392 [µM] | POD vs vehicle 1434 [µM] | POD vs vehicle 1516 [1] [µM] | POD vs vehicle 1518 [2] [µM] | POD vs vehicle 1531 [3] [µM] | POD vs vehicle 1535 [µM] | POD vs vehicle 1565 [µM] | POD vs vehicle 20032 [µM] | POD vs vehicle 20084 [µM] | POD vs vehicle 30145 [4] [µM] | POD vs vehicle 30171 [µM] | POD vs vehicle 1531 [5] [µM] | POD vs vehicle 30145 [6] [µM] | POD vs vehicle 1516 [7] [µM] | POD vs vehicle 1518 [8] [µM] |
| --- | --- | --- | --- | --- | --- | --- | --- | --- | --- | --- | --- | --- | --- | --- | --- | --- | --- | --- | --- | --- |
| OCC(F)(F)C(F)(F)C(F)(F)CO [Hexafluoroamylene_glycol] | > 100 | > 100 | > 100 | > 100 | > 100 | > 100 | > 100 | > 100 | > 100 | > 100 | > 100 | > 100 | > 100 | > 100 | > 100 | > 100 | > 100 |  |  |  |
| NC(=O)C(F)(F)C(F)(F)C(F)(F)C(F)(F)F [Nonafluoropentanamide] | > 100 | 17.3 | > 100 | > 100 | > 100 | > 100 | > 100 | > 100 | > 100 | > 100 | > 100 | > 100 | > 100 | > 100 | > 100 | > 100 |  | > 100 | > 100 | 0.612 |
| O=C(O)C(F)(F)C(F)(F)C(F)(F)C(F)(F)C(=O)O [Octafluoroadipic_acid] | > 100 | > 100 | > 100 | > 100 | > 100 | > 100 | > 100 | > 100 | > 100 | > 100 | > 100 | > 100 | > 100 | > 100 | > 100 | > 100 |  | > 100 | > 100 | > 100 |
| O=C(O)C(F)(F)OC(F)(F)C(F)(F)OC(F)(F)C(F)(F)OC(F)(F)C(F)(F)C(F)(F)C(F)(F)F [Perfluoro-3,6,9-trioxatridecanoic_acid] | 21.8 | 18.3 | 23.1 | > 100 | > 100 | > 100 | 22.8 | 22.2 | > 100 | 3.38 | 79.4 | > 100 | 42 | 77.9 | > 100 | 20.7 |  | > 100 |  | > 100 |
| O=C(O)C(F)(F)OC(F)(F)C(F)(F)OC(F)(F)C(=O)O [Perfluoro-3,6-dioxaoctane-1,8-dioic_acid] | > 100 | > 100 | > 100 | > 100 | > 100 | > 100 | > 100 | > 100 | > 100 | > 100 | > 100 | > 100 | > 100 | > 100 | > 100 | > 100 |  | > 100 | > 100 | > 100 |
| O=C(O)C(F)(F)C(F)(F)C(F)(F)OC(F)(C(F)(F)F)C(F)(F)F [Perfluoro-4-isopropoxybutanoic_acid] | > 100 | > 100 | > 100 | > 100 | > 100 | > 100 | > 100 | > 100 | > 100 | > 100 | > 100 | > 100 | > 100 | > 100 | > 100 | > 100 |  | > 100 | > 100 | > 100 |
| O=C(O)C(F)(F)C(F)(F)C(F)(F)C(F)(F)C(F)(F)C(F)(F)F [Perfluoroheptanoic_acid] | > 100 | 39.8 | 20.6 | > 100 | > 100 | > 100 | > 100 | 68.1 | > 100 | 78.7 | > 100 | > 100 | > 100 | > 100 | > 100 | > 100 |  | > 100 |  |  |
| NC(=O)C(F)(F)C(F)(F)C(F)(F)C(F)(F)C(F)(F)C(F)(F)C(F)(F)F [Perfluorooctanamide] | > 100 | > 100 | > 100 | > 100 | > 100 | > 100 | > 100 | > 100 | > 100 | > 100 | > 100 | > 100 | > 100 | > 100 | > 100 | > 100 |  | > 100 | > 100 |  |
| N=C(N)C(F)(F)C(F)(F)C(F)(F)C(F)(F)C(F)(F)C(F)(F)C(F)(F)F [Perfluorooctanamidine] | > 100 | 0.128 | 0.499 | > 100 | > 100 | > 100 | > 100 | > 100 | > 100 | > 100 | 2.86 | > 100 | > 100 | > 100 | > 100 | > 100 |  | > 100 | > 100 |  |
| O=S(=O)([O-])C(F)(F)C(F)(F)C(F)(F)C(F)(F)F.[K+] [Potassium_perfluorobutanesulfonate] | > 100 | 33.8 | 67.8 | > 100 | > 100 | > 100 | > 100 | > 100 | > 100 | > 100 | > 100 | > 100 | > 100 | > 100 | > 100 | > 100 |  | > 100 | > 100 | > 100 |
